Results: paper PMC6465334, “Functional Analysis of MsepOR13 in the Oriental Armyworm Mythimna separata (Walker)” (Frontiers in Physiology, 2019)

How the values were obtained:
[1] = biological target: T1, MsepOR13/Orco (MsepOR13/MsepOrco) (Mythimna separata, UniProt A0A650FIP0); experiment: two-electrode voltage clamp, Xenopus oocytes, single concentration; format: cell-based; details: MsepOrco co-expressed; holding potential -80 mV; 15 s exposure at 10^-4 M; agonist
T1 construct: gene OR13; full-length untagged MsepOR13, 408 aa (ORF 1227 bp), cloned from adult antennal cDNA; pT7Ts cRNA, Xenopus oocytes; with Odorant receptor coreceptor
T1 sequence (A0A650FIP0 1-408): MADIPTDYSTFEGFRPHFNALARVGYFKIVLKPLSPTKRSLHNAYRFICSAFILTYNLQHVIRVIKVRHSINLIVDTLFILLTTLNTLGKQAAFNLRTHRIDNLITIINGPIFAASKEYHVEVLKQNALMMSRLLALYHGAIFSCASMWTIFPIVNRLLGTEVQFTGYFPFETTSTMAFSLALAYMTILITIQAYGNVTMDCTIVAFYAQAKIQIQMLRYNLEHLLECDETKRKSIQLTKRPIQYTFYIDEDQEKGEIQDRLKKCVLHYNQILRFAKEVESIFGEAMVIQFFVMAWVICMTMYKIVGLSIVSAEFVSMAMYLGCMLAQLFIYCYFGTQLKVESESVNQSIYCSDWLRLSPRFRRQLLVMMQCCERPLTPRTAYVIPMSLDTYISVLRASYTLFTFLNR
T1 sequence (B5MEJ5 1-473 partner): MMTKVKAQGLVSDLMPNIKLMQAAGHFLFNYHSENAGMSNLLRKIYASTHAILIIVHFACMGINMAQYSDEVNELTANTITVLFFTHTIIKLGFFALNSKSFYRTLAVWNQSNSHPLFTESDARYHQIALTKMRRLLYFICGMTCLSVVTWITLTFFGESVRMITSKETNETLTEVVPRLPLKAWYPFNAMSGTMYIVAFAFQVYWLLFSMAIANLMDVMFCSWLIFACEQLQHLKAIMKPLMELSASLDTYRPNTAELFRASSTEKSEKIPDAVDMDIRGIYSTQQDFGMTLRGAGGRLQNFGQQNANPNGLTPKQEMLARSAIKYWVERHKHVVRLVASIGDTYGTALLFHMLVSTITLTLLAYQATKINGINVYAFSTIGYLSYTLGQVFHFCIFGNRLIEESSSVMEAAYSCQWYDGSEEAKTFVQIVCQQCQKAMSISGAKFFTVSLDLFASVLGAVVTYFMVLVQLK

[2] = biological target: T1, MsepOR13/Orco (MsepOR13/MsepOrco); experiment: two-electrode voltage clamp, Xenopus oocytes, dose-response; format: cell-based

Row | SMILES | current response at 10^-4 M [1] | EC50 [2] [µM]
1 | CC(=O)c1ccccc1 [Acetophenone] | 523.3 nA | –
2 | C=CCc1ccc(OC)c(OC)c1 [Methyl eugenol] | ~ 1655 nA | –
3 | C=CCc1ccc(O)c(OC)c1 [Eugenol] | – | 3.91
4 | CCCCCCO [1-Hexanol] | 60 nA | –
